According to patent publication US5621133A (priority 1995, dated 1997):
Counter-ions that a name gives are not always drawn. Like-named read-outs stand apart in the source and are kept apart here.

What was measured:
[1] = target: dopamine D-2 receptor (Rattus norvegicus, UniProt P61169); assay: biochemical; assay type: binding
Experimental: Homogenized rat caudate was the source of the D-2 receptors. […] The molar affinity of the compound for the receptor binding site was calculated by the same method used for the D-1 receptor assay, assuming a competitive interaction between the compound and the radiolabeled ligand.

[2] = target: dopamine D-1 receptor (Rattus norvegicus, UniProt P18901); assay: biochemical; conditions: D-1 Ki, rat caudate, [125I]SCH-23982
Description: The compounds compete with the radiolabeled ligand for occupancy of the receptors and the molar potency of each compound was quantified.
The Ki values are inversely proportional to the affinity of the compound for the receptor.

[3] = test system: dopamine D-1 receptor; conditions: for Intrinsic Activity (adenylate cyclase assay): dopamine = 100, goldfish retina or rat striatum; for EC50: read-out: EC50 (agonist activity in adenylate cyclase assay), tissue from goldfish retina or rat striatum
Experimental: In order to determine agonist activity, cell-free tissue homogenates are incubated in an ionic buffer solution containing ATP and the compound being evaluated. The tissue was obtained from either goldfish retina or rat striatum.

[4] = rat caudate, [125I]-p-aminophenylethyl spiroperidol, read-out: D-2 Ki

dopamine D-2 receptor, sequence (P61169 whole entry): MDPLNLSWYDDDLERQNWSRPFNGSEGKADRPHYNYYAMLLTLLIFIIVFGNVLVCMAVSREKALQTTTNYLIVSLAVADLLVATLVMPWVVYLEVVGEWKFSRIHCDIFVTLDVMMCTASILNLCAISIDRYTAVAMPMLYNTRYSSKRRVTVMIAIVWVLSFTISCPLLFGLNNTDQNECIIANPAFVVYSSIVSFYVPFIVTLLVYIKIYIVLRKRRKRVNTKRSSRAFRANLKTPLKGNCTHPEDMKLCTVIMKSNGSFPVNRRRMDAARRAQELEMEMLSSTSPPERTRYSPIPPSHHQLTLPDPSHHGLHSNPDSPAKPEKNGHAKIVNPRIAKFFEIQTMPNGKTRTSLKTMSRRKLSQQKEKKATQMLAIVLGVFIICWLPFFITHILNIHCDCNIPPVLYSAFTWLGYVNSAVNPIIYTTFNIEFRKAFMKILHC
dopamine D-1 receptor (Rattus norvegicus, UniProt P18901), sequence (P18901 whole entry): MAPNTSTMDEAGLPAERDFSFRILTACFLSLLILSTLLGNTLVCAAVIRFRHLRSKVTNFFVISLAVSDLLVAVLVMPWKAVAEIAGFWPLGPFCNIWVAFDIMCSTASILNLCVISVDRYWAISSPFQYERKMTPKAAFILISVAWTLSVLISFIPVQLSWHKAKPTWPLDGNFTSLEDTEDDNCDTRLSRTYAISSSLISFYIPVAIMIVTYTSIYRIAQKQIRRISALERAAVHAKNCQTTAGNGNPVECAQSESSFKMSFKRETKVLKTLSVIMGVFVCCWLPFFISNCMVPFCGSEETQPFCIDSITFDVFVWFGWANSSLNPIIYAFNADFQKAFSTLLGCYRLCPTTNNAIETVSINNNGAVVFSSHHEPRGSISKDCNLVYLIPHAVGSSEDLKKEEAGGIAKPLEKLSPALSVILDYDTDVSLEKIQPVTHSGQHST

Structure (SMILES) | Ki [1, 4] | Ki [2] | Intrinsic Activity (adenylate cyclase assay) [3] | other results
CN1CCC2=C(C1)c1ccc(O)c(O)c1CC21CCCCCCCC1 [Example 248] | 0.88 µM | 0.58 µM |  | 
NC[C@@H]1O[C@H](c2cccc(O)c2)Cc2c1ccc(O)c2O (relative stereo) [Example 70] | 0.65 µM |  |  | 
C=CCN(C)C[C@H]1O[C@@H](CCCCCC)Cc2c1ccc(O)c2O (relative stereo) [Example 121] |  |  | 51 | EC50 [3]: 21 µM
Oc1ccc2c(c1O)CC(C1CCCCC1)C1=C2CNCC1 (stereo not drawn) [Example 202] | 1.6 µM |  | 84 | 
CN(C)C[C@H]1O[C@@H](CC2CCCCC2)Cc2c1ccc(O)c2O (relative stereo) [Example 148A] | 2.6 µM | 0.71 µM |  | 
CC(C)(C)CC1C=C(CN)c2ccc(O)c(O)c2C1 (stereo not drawn) [Example 233] | > 10 µM | 3.2 µM |  | 
CC(C)(C)[C@H]1Cc2c(ccc(O)c2O)[C@@H](CN)O1 (relative stereo) [Example 48, [1,3-cis]1-Aminomethyl 3-t-butyl-5,6-dihydroxy-3,4-dihydro-1H-2-benzopyran Hydrochloride] | 13 µM |  | 112 | 
NC[C@H]1O[C@@H](C23CC4CC(CC(C4)C2)C3)Cc2c1cc(F)c(O)c2O (relative stereo) [Example 106] | > 10 µM |  | 65 | 
Oc1ccc2c(c1O)CC(c1ccccc1)C1=C2CNCC1 (stereo not drawn) [Example 239] | 2 µM |  | 103 | 
Oc1ccc2c(c1O)CC1(CCCCCCC1)C1=C2CNCC1 [Example 207] | 1.2 µM |  | 64 | 
C#CC[C@H]1Cc2c(ccc(O)c2O)[C@@H](CN)O1 (relative stereo) [Example 110, [1,3-cis]1-Aminomethyl-5,6-dihydroxy-3-(3'-prop-1'-ynyl)-3,4-dihydro-1H-2-benzopyran Hydrochloride] | 1.1 µM |  |  | 
CNC[C@H]1O[C@@H](C2CCCCC2)Cc2c1ccc(O)c2O (relative stereo) [Example 111, [1,3-cis]3-Cyclohexyl-5,6-dihydroxy-1-methylaminomethyl-3,4-dihydro-1H-2-benzopyran Hydrochloride] | 0.72 µM |  |  | 
C=CCCCC[C@@H]1Cc2c(ccc(O)c2O)[C@H](CN)O1 (relative stereo) [Example 66] | 0.64 µM |  | 84 | 
C=CCN(C)C[C@H]1O[C@@H](C2CCCCC2)Cc2c1ccc(O)c2O (relative stereo) [Example 120] | 3 µM |  |  | 
Oc1ccc2c(c1O)C[C@@H](c1ccccc1)O[C@H]2[C@@H]1CCCN1 [Example 124] | 0.47 µM | 1.9 µM |  | 
NC[C@@H]1O[C@H](C(c2ccccc2)c2ccccc2)Cc2c1ccc(O)c2O (relative stereo) [Example 71] | 2.8 µM |  |  | 
CC(C)(C)[C@@H]1Cc2c(ccc(O)c2O)[C@H](CN)C1 (relative stereo) [Example 195] |  | 0.25 µM | 73 | EC50 [3]: 0.4 µM
CC(=O)NCC1=CC(c2ccccc2)Cc2c1ccc(O)c2O (stereo not drawn) [Example 213, 1-Acetylaminomethyl-3-phenyl-5,6-dihydroxy-3,4-dihydronaphthalene] |  |  | 70 | 
C=CC[C@H]1Cc2c(ccc(O)c2O)[C@@H](CN)O1 (relative stereo) [Example 101] |  |  | 119 | 
NC[C@@H]1O[C@H](C23CC4CC(CC(C4)C2)C3)Cc2c1cc(F)c(O)c2O [Example 103] | 2 µM |  | 88 | 
CCCC1(CCC)Cc2c(ccc(O)c2O)C2=C1CCNC2 [Example 208] | 3.1 µM | 0.53 µM |  | 
CC(C)(C)CC1Cc2c(ccc(O)c2O)C2=C1CCNC2 (stereo not drawn) [Example 242] | 2 µM | 1.5 µM |  | 

Structure (SMILES) | Ki [1, 4] | Ki [2] | Intrinsic Activity (adenylate cyclase assay) [3] | other results
Oc1ccc2c(c1O)CC1(CCCCCC1)C1CCNCC21 (stereo not drawn) [Example 252] |  |  | 49 | 
NC[C@@H]1O[C@H](c2ccccc2)Cc2c1ccc(O)c2O [Example 54] | 0.91 µM |  |  | 
NCC1=CC2(CCCCCC2)Cc2c1ccc(O)c2O [Example 188, 1'-Aminomethyl-5,6'-dihydroxyspiro[cycloheptane-1,3'-(3',4'-dihydro-2'-H-naphthalene)]hydrobromide] | 7 µM | 2 µM |  | 
NCC1=CC(c2ccccc2)Cc2c1ccc(OC(=O)NCc1ccccc1)c2OC(=O)NCc1ccccc1 (stereo not drawn) [Example 30] |  | > 10 µM |  | Ki ([1]; D-2 Ki, rat caudate, [125I]-p-aminophenylethyl spiroperidol): 32 µM
Br.N[C@H]1CCc2cc(O)c(O)c3c2[C@H]1C[C@H](c1ccccc1)C3 (relative stereo) [Example 183, [1S*,8S*,9aR*]1-Amino-5,6-dihydroxy-8-phenyl-2,3,7,8,9,9a-hexahydrophenalene Hydrobromide] | > 10 µM |  | 56 | 
C#CCN(C)C[C@H]1O[C@@H](C2CCCCC2)Cc2c1ccc(O)c2O (relative stereo) [Example 119] | > 10 µM |  |  | 
Oc1ccc2c(c1O)CC(c1ccccc1)C1=C2CNCC1 (stereo not drawn) [Example 200] | 3.3 µM |  | 120 | 
COc1ccc(CC2Cc3c(ccc(O)c3O)C(CN)O2)cc1 (stereo not drawn) [Example 83] | 4.5 µM |  |  | 
Br.N[C@@H]1CCc2cc(O)c(O)c3c2[C@H]1C[C@H](c1ccccc1)C3 (relative stereo) [Example 182, [1R*,8S*,9aR*]1-Amino-5,6-dihydroxy-8-phenyl-2,3,7,8,9,9a-hexahydro-phenalene Hydrobromide] | 2.2 µM |  | 65 | 
CCCC1(CCC)C=C(CN)c2ccc(O)c(O)c2C1 [Example 192] | > 10 µM | 3.2 µM |  | 
NC[C@@H]1O[C@H](C2CCCCCCC2)Cc2c1ccc(O)c2O (relative stereo) [Example 76] | 0.44 µM |  |  | 
Oc1ccc2c(c1O)CC(C13CC4CC(CC(C4)C1)C3)C1=C2CNCC1 (stereo not drawn) [Example 238] | > 10 µM | 5.1 µM |  | 
COC(=O)CCC(=O)Oc1ccc2c(c1OC(=O)CCC(=O)OC)CC(c1ccccc1)C=C2CN (stereo not drawn) [Example 19] | > 10 µM | 0.6 µM |  | 
NCC1OC(c2ccccc2)Cc2c1ccc(O)c2O (stereo not drawn) [Example 96] | 0.87 µM |  |  | 
NC[C@H]1O[C@@H](c2ccccc2)Cc2c1ccc(O)c2O (relative stereo) [Example 49] | 1 µM |  |  | 
NC[C@@H]1O[C@H](C23CC4CC(CC(C4)C2)C3)Cc2c(O)c(O)cc(Br)c21 (relative stereo) [Example 107, 1-Aminomethyl-8-bromo-adamantyl-5,6-dihydroxy-3,4-dihydro-1H-2-benzopyran Hydrobromide] | > 10 µM | 2.5 µM |  | 
CC(C)(C)C1Cc2c(ccc(O)c2O)C(CN)O1 (stereo not drawn) [Example 102] | > 10 µM |  | 113 | 
CC(C)(C)[C@H]1Cc2c(ccc(O)c2O)[C@@H](CN)O1 (relative stereo) [Example 100] | 54 µM |  |  | 
NC[C@H]1O[C@@H](C2CCCCC2)Cc2c1ccc(O)c2O (relative stereo) [Example 50] |  |  |  | Ki ([1]; D-2 Ki): 1.2 µM
CCCCC[C@H]1Cc2c(ccc(O)c2O)[C@@H](CNC)O1 (relative stereo) [Example 144] | 0.091 µM |  | 107 | 
Oc1ccc2c(c1O)C[C@@H](c1ccccc1)C1=C2CNCC1 [Example 201] | 1.5 µM |  | 110 | 
CCCC1(CCC)Cc2c(ccc(O)c2O)C(CN)C1 (stereo not drawn) [Example 198] |  | 3.7 µM |  | 
